From patent publication US20090036527A1, “Therapeutic Application Of Leonurine In Treating Cardiomyopathy” (priority 2007, published 2009)
Read-outs that look alike come from different tables or passages of the source.

Key:
[1] = Acta Physiologica Sinica 2007; cited from earlier work
myocardial cells [2] = assay: LDH leakage (release) from hypoxia injured myocardial cells; format: cell-based, rat; conditions: hypoxia 6 hours; 10^−6 mol/L; vs vehicle (hypoxia) group; p<0.01
Protocol: Myocardial cell samples were obtained from the same procedure of Example 1A, the experiment groups were divided and hypoxia experiments were performed on Control group (no Leonurine treatment, no hypoxia/reoxygenation process), vehicle (hypoxia) group (no Leonurine treatment, under hypoxia condition for 6 hours), and Leonurine group (10^−6 mol/L). Myocardial cells were obtained from each sample (10^6 myocardial cells/sample) from the Control group, vehicle (hypoxia) group, Leonurine group. The cells were lysed under sterilized condition, and LDH (Lactate Dehydrogenase) contents in each sample of the cells were tested by pyruvic acid production method, using LDH content in Control sample cells as standard of 100%. The rate of LDH leakage (release) was calculated, which is the difference between LDH content of Control group samples and vehicle (hypoxia) group or Leonurine group or Losartan group.

myocardial ischemic rat [3] = assay: Plasma LDH and CK levels in MI rat model; format: in vivo; conditions: MI rats; 7.5 or 15 mg/Kg/day intraperitoneal; p<0.05
Protocol: MI injuries myocardial cells and CK and LDH levels are increased in the serum of the animals. After MI, the animal plasma CK level and LDH level were measured, and Leonurine's effects were assessed. Same MI models in same rat groups as Experiment 2A were established. Plasma CK levels were detected with diagnostic kit (NJBI, China) according to the instructions. LDH were determined colorimetrically with a spectrophotometer. […] (FIG. 7 and FIG. 8)

Bcl-2 and Bax = Bcl-2 and Bax mRNA and protein levels in MI rat model; format: in vivo; conditions: MI rats; 7.5 or 15 mg/Kg/day intraperitoneal
From the text: Bax is a gene promoting cell apoptosis. Bcl-2 is an anti apoptosis gene. Same MI models in same rat groups as Experiment 2A were established. mRNA and protein levels of Bax and Bcl-2 were detected. […] (FIG. 11 and FIG. 12)

myocardial ischemic rat [4] = assay: Infarct size (TTC staining) and mortality in MI rat model (coronary artery ligation); format: in vivo; conditions: MI rats, 7.5 or 15 mg/Kg/day intraperitoneal, vs saline
myocardial ischemic rat [5] = assay: Plasma MDA level and left ventricle SOD activity in MI rat model; format: in vivo; conditions: MI rats; 7.5 or 15 mg/Kg/day intraperitoneal
From the text: MDA reflect lipid peroxidation level in MI injuries myocardial cells. SOD plays an important role in balancing oxidant and antioxidant system in an organism. SOD can eliminate superoxide free radicals, thereby protect cells from injury. Same MI models in same rat groups as Experiment 2A were established. Plasma MDA level and left ventricle SOD activity were detected. […] (FIG. 9 and FIG. 10)

myocardial cells [6] = assay: SOD and CuZn-SOD activities of myocardial cells under hypoxia; format: cell-based, rat; conditions: 10^−6 mol/L
Protocol: Myocardial cell samples were obtained from the same procedure of Example 1B, and the experiments were performed same as Example 1B with the same dosages and same conditions. SOD (superoxide dismutase) plays an important role in balancing oxidant and antioxidant system in an organism. SOD can eliminate superoxide free radicals, thereby protect cells from injury. The activities of SOD and CuZn-SOD in Leonurine treated hypoxia cells are elevated. […] (FIG. 4)

myocardial cells [7] = assay: MDA content of myocardial cells under hypoxia (TBA method); format: cell-based, rat; conditions: 10^−6 mol/L
Protocol: Myocardial cell samples were obtained from the same procedure of Example 1B, and the experiments were performed same as Example 1B with the same dosages and same conditions. Oxygen free radicals produced by enzyme and non enzyme systems in an organism attack poly unsaturated fatty acid in biomembrane, inducing lipid peroxidation and producing MDA (malondialdehyde). MDA can react with thiobarbituric acid (TBA), forms red product, which can be detected in spectrophotometer at 532 nm. The level of MDA can be used to indicate lipid peroxidation, thereby reflect condition of cell injury.

creatine kinase (CK) = conditions: concentration- and time-dependent; Zhao Wang et al. 2004; cited from earlier work
[8] = tested on: animal heart failure model; assay: Cardiac function by catheterization in rat heart failure model; format: in vivo; conditions: HF rats, 8 weeks
Protocol: (§1) Heart failure (HF) animal model, which was occlusive ligation of anterior descending coronary artery, was employed. All treatment was given via intragastric administration. The experimental period was 8 weeks. HF was induced on day eight by ligation of the left anterior descending coronary artery at approximately 2-3 mm from its origin. Briefly, the rats were anesthetized with 7% choral hydrate (60 mg/kg), endotracheally intubated and mechanically ventilated with room air, respiratory rate 100 breaths/min, tidal volume 2.5 ml with a rodent ventilator (DHX-150, China). ECG was recorded in the anaesthetized animal for a period of one minute using the Animal Mflab200 amplifier (Produced in China) as controls. A left thoracotomy was performed and the third intercostal space was exposed. The proximal left anterior descending coronary artery, which supplies blood to left ventricle of the heart, was ligated at the position 2-3 mm from the aorta with a 5-0 atraumatic suture that was passed through the superficial layers of myocardium, between the left auricle and the cone of pulmonary artery. […] Then incisions were sutured and the chests were closed. Sham operated rats were prepared in the same manner except the left coronary was not ligated. After completion of the surgical procedures, rats were removed from the ventilator and the endotracheal tube removed. The rats were kept warm, given water and food after they were awake from the anesthesia and kept in different cages according to experiment groups. The rats in correspondent experiment groups were given corresponding dosages of Leonurine continuously for 8 weeks, while the rats in control and MI groups were given no Leonurine. Two days after ligation, surviving rats were performed in four groups of rats in random fashion. Group 1: Sham-operated rats. The rats served as controls and received saline throughout the study. Group 2: Heart failure rats. This group consisted of rats with heart failure that received saline. Group 3: Heart failure plus low dose leonorine (15 mg/kg/day). Group 4: Heart failure plus high dose leonorine (30 mg/kg/day). All treatment was given via intragastric administration. The experimental period was 8 weeks. To evaluate the effect of Leonurine on HF, catheterizations to arteries and ventricles are performed to record heat rate (HR), mean aortic pressure (MAP), Left Ventricular Systolic Pressure (LVSP), Left Ventricular End-Diastolic Pressure (LVEDP), peak positive first derivative of left ventricular pressure (+dP/dt), peak negative first derivative of left ventricular pressure (−dP/dt). Data from the measurement of the recording were analyzed to observe the effect of Leonurine. Furthermore, plasma cysteine level and plasma ascorbic acid level were measured by capillary electrophoresis.

[9] = tested on: vascular smooth muscle cells; conditions: Chen and Kwan, Life Sciences 2001; cited from earlier work
[10] = Plasma Leonurine, cysteine and ascorbic acid levels (capillary electrophoresis) in rat heart failure model; format: in vivo; conditions: HF rats; for plasma Ascorbic acid level / plasma Cysteine level: 8 weeks; for concentration at 8 weeks: rat, plasma, oral, read-out: plasma Leonurine level
Protocol: as §1

myocardial cells [11] = assay: Catalase activity of myocardial cells under hypoxia; format: cell-based, rat; conditions: 10^−6 mol/L
Protocol: Myocardial cell samples were obtained from the same procedure of Example 1B, and the experiments were performed same as Example 1B with the same dosages and same conditions. Catalase can catalyze oxygen free radicals, its activity in Leonurine treated hypoxia cells groups is elevated. (FIG. 3)

myocardial cells [12] = assay: Myocardial cell viability (MTT) after hypoxia; format: cell-based, rat; conditions: hypoxia 6 hours; 10^−6 mol/L; vs vehicle (MI) group; p<0.01
Protocol: The heart sample of 3 day old Sprague-Dawley (SD) rat (first generation) was washed in PBS (phosphate balanced solution) under sterilized condition. The sample is digested in 0.08% pancreatic enzyme solution 37 degree C for 10 minutes in a flask, wherein the solution was stirred constantly. In order to stop the digestion, serum was added into the flask and mixed with the solution. The digesting process was repeated 8 times, and the supernatant of each digestion was collected. The supernatant was centrifuged 2,000/minute for 5 minutes, and the myocardial cells were collected each time. The myocardial cell density was adjusted to 10^6/sample and cultured in DMEM containing 10% calf serum for 3 days.
The cultured myocardial cells were divided into the following groups:
Control group, no Leonurine treatment, no hypoxia process.
Hypoxia (vehicle, MI) group, no Leonurine treatment, under hypoxia condition for 6 hours.
Leonurine group, under hypoxia condition for 6 hours then cultured with corresponding treatment of Leonurine 10^−6 mol/L. […]
Myocardial cell viability was assessed by MTT method, which is the measurement of the reduction of 3-(4,5-dimethylthiazol-2-yl)-2,5-diphenyltetrazolium bromide (MTT). […] The amount of formazan was measured using a microplate reader at spectrum 570 nm.

SMILES: COc1cc(C(=O)OCCCCNC(=N)N)cc(OC)c1O [Kardigen]
- anti-oxidative effects [1]: has anti-oxidative effects
- prevention of ischemia cardiomyopathy [1]: can prevent ischemia cardiomyopathy effectively

SMILES: COc1cc(C(=O)OCCCCNC(=N)N)cc(OC)c1O [Leonurine]
- LDH leaking (release) rate (myocardial cells [2]): lower
- plasma CK level (myocardial ischemic rat [3]): significantly reduce
- plasma LDH level (myocardial ischemic rat [3]): significantly reduce
- Bax mRNA expression (Bcl-2 and Bax): significantly reduce
- Bax protein expression (Bcl-2 and Bax): significantly reduce
- Bcl-2 mRNA expression (Bcl-2 and Bax): increase
- Bcl-2 protein expression (Bcl-2 and Bax): increase
- infarct size of myocardium (myocardial ischemic rat [4]; 7 days before and 2 days after ligation): significantly less
- mortality rate (myocardial ischemic rat [4]): not difference
- left ventricle SOD activity (myocardial ischemic rat [5]): increase
- plasma MDA level (myocardial ischemic rat [5]): significantly reduce
- CuZn-SOD activity (myocardial cells [6]): elevated
- SOD activity (myocardial cells [6]): elevated
- MDA level from lipid peroxidation (myocardial cells [7]): inhibited
- activity of creatine kinase (CK) (creatine kinase (CK)): inhibits the enzyme activity
- HR ([8]; 15 mg/kg/day intragastric): 441 ± 29 beats/min
- LVEDP ([8]; 15 mg/kg/day intragastric): 11.53 ± 1.83 mmHg
- LVSP ([8]; 15 mg/kg/day intragastric): 143.77 ± 26.82 mmHg
- MAP ([8]; 15 mg/kg/day intragastric): 107.86 ± 31.23 mmHg
- dP/dt ([8]; 15 mg/kg/day intragastric): 4205 ± 412.71 mmHg/s
- −dP/dt ([8]; 15 mg/kg/day intragastric): −4368.83 ± 662.12 mmHg/s
- HR ([8]; 30 mg/kg/day intragastric): 427 ± 78 beats/min
- LVEDP ([8]; 30 mg/kg/day intragastric): 13 ± 5.96 mmHg
- LVSP ([8]; 30 mg/kg/day intragastric): 126.37 ± 2.28 mmHg
- MAP ([8]; 30 mg/kg/day intragastric): 92.59 ± 10.91 mmHg
- dP/dt ([8]; 30 mg/kg/day intragastric): 4095 ± 433.45 mmHg/s
- −dP/dt ([8]; 30 mg/kg/day intragastric): −3276.62 ± 283.77 mmHg/s
- contraction of the smooth muscle cells [9]: inhibiting
- intracellular calcium ion release and outside calcium ion influx through calcium channels [9]: inhibits
- plasma Ascorbic acid level ([10]; 15 mg/kg/day intragastric): 26.02 ± 3.95 µmol/L
- plasma Cysteine level ([10]; 15 mg/kg/day intragastric): 31.3 ± 21.32 µmol/L
- plasma Ascorbic acid level ([10]; 30 mg/kg/day intragastric): 39.79 ± 4.33 µmol/L
- plasma Cysteine level ([10]; 30 mg/kg/day intragastric): 35.29 ± 9.73 µmol/L
- concentration at 8 weeks ([10]; 15 mg/kg/day intragastric): 7.42 ± 3.13 µM
- concentration at 8 weeks ([10]; 30 mg/kg/day intragastric): 48 ± 11 µM
- Catalase activity (myocardial cells [11]): elevated
- survival rate of myocardial cell (cell viability) (myocardial cells [12]): significantly increase

SMILES: CCCCc1nc(Cl)c(CO)n1Cc1ccc(-c2ccccc2-c2nn[nH]n2)cc1 [Losartan, reference compound]
- LDH leaking (release) rate (myocardial cells [2]): lower
